Measured values from patent publication US12729388B2, “Methods and systems for producing cellulosic ethanol by biomass saccharification and fermentation” (ZHEJIANG HUAKANG PHARMACEUTICAL CO., LTD., priority 2021, dated 2026).

System: cellulase Cellic CTec 2
Assay: Validation experiment of the inhibitory effect of glucose and ethanol on the enzymatic hydrolysis reaction
Assay type: biochemical
Conditions: Group C: 50 g/L ethanol externally added, corn cob waste 15% dry substrate, cellulase 4% of dry substrate, pH 5.0~6.0, 50° C., 300 rpm
Description: Validation experiment of the inhibitory effect of glucose and ethanol on the enzymatic hydrolysis reaction. A reaction system was prepared using a citric acid buffer solution with a concentration of 0.1 mol/L. The citric acid buffer solution was added to a corn cob waste system in which a content of the biomass feedstock was 15% of a dry substrate, a pH of the mixture was maintained at 5.0~6.0, and cellulase […] a content of 4% of the dry substrate was added to the mixture to prepare three groups of 1 L reaction systems. [table] The three reaction systems were subjected to enzymatic hydrolysis at 50° C. for 72 hours under a condition of stirring at 300 rpm. Samples were taken from each reaction system every 12 hours to measure an amount of glucose released by the enzymatic hydrolysis, and results are shown in FIG. 3. FIG. 3 is a schematic diagram illustrating that glucose release concentration changes over time in an enzymatic hydrolysis system with external addition of glucose and ethanol according to some embodiments of the present disclosure.

CCO [ethanol]
amount of glucose released during the 72-hour enzymatic hydrolysis, lower than that of the control Group A: 8%
